Assay in all cases: NCI-60 cell line screen, 48 h
In assay [1] the test system is 786-0.
Assay [2] concerns K562.
Assay [3] deals with BT-549.
Assay [4] relates to SN12C.
The test system of assay [5] is OVCAR-3.
The test system of assay [6] is MDA-N.
Assay [7] has as its system CCRF-CEM.
The subject of assay [8] is OVCAR-4.
Assay [9] relates to HOP-92.
Assay [10] relates to HT-29.
The test system of assay [11] is KM12.
Assay [12] has as its system COLO 205.
Assay [13] has as its system SF-295.
Assay [14] has as its system T47D.
The subject of assay [15] is HOP-62.
Assay [16] relates to U-251.
Assay [17] has as its system UO-31.
For assay [18], the system named is EKVX.
The subject of assay [19] is TK-10.

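Five concentrations, 48 hours, 96-well plates. GI50 = concentration required for 50% inhibition of growth.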 Activity calls are given as the source filed them. Cut-off read from the data, not from the text of the source: active = GI50 up to about 1.1 µM and inactive = higher.

As for `O=C1CC(=O)n2cnc3cccc(c32)N1`, the GI50 in [1], in assay [2], in assay [3], in [4], in [5] and in assay [6] was > 100 µM (inactive) each time. Also, the GI50 in [7], in [8], in [9], in assay [10], in assay [11] and in [12] was > 100 µM (inactive) throughout. In addition, the GI50 in assay [13], in assay [14], in [15], in assay [16], in assay [17] and in [18] was > 100 µM (inactive) throughout.

For the compound `C/C=C(\C)C(=O)OC1/C=C(\C)CC/C=C(\C)CC2OC(=O)C(C)(OC(C)=O)C12` (configuration not stated), the GI50 in assay [1], in assay [2], in assay [3], in assay [4], in [5] and in [6] was > 100 µM (inactive) throughout. Also, the GI50 in assay [7], in assay [8], in assay [9], in assay [19], in assay [10] and in [11] was > 100 µM (inactive) in each case. Further, the GI50 in assay [12], in assay [13], in [14], in assay [15], in [16] and in [18] was > 100 µM (inactive) each time.

Take `CNc1ncnc2c1ncn2C1C=CC(COS(N)(=O)=O)C1` (configuration not stated): the GI50 in assay [1], in assay [2], in assay [3], in [4], in [5] and in [6] was > 100 µM (inactive) in each case. Moreover, the GI50 in [7], in assay [8], in assay [9], in assay [10], in [11] and in assay [12] was > 100 µM (inactive) in each case. Moreover, the GI50 in assay [13], in [14], in assay [15], in assay [16], in assay [17] and in [18] was > 100 µM (inactive) throughout.

As to `CCCN(CCC)C(=S)Sc1nc(C)nc(N2CCN(c3nc(C)nc(SC(=S)N(CCC)CCC)c3[N+](=O)[O-])CC2)c1[N+](=O)[O-]`, the GI50 in [1] was 3.62 µM (inactive); in [2], 1.11 µM (active); in assay [3], 5.2 µM (inactive); in assay [4], 8.77 µM (inactive); in [6], 8.45 µM (inactive); in [7] it was 0.628 µM (active). Besides, the GI50 in [8] was 17.3 µM (inactive); in assay [9], 15.8 µM (inactive); in [19], 20.1 µM (inactive); in assay [10], 2.07 µM (inactive); in assay [11], 14.2 µM (inactive); in assay [12], 0.262 µM (active). For the same compound, the GI50 was 24.9 µM (inactive) in assay [13]; 8.2 µM (inactive) in [14]; 29.4 µM (inactive) in [15]; 6.5 µM (inactive) in assay [16]; 17.9 µM (inactive) in assay [17]; 30.5 µM (inactive) in assay [18].

(Values after ChEMBL document CHEMBL1201862, “PubChem BioAssay data set” (2004).)
